From patent publication US20170368034A1, “THIOTRIAZOLE COMPOUND AND ITS USE IN PARASITIC PROTOZOAL INFECTIONS” (GlaxoSmithKline Intellectual Property Development Limited, priority 2014, published 2017)
Values after ≈ are worked out from the molar mass of the structure shown. Read-outs that look alike come from different tables or passages of the source.

How the values were obtained:
[1] = Equilibrium solubility assessment in biorelevant media; assay type: physicochemical; settings: thermodynamic from solid, room temperature
Protocol: Compound's equilibrium solubility was measured at 4 h room temperature in four biologically relevant fluids: Fasted State-(Simulated Intestinal Fluid (FaSSIF), Fed State Simulated IntestinalFluid (FeSSIF), Simulated Gastric Fluid (SGF) and Phosphate Buffered Saline (PBS).
Organic solvents of HPLC grade were used. Ultra pure water (Milli-Q grade) was used. Buffers were prepared with ultra pure water and filtered using 0.45 μ nylon filters.
Determination of equilibrium solubility (assuming chemical stability in the desired solvent is not a problem).
a) 1 mg of solid compound was weighted in one 4 mL glass vial and 1 mL of the corresponding medium freshly prepared (SGF, FaSSIF, FeSSIF or PBS) was added. All these samples were prepared by duplicate.
b) The samples were stirred (roller mixer) for 4 hr at room temperature. If required, additional solid compound (0.1 mg) was added to maintain excess of it (saturated solutions).
c) After 4 hours, the samples were centrifuged (10000 rpm, 10 min.) and the supernatants were transfer to an HPLC vial and analysed by LC-MS (previous dilution with mobile phase when needed).
d) The pH of the final solution in each sample was measured with a pH-meter (WTW pH330i and a pH-electrode Sentix 41).
All supernatants were analysed by LC-MS. Quantification of those samples was carried out against calibration curves obtained from 1 mg/mL DMSO (Aldrich cat. ref.: 27685-5) stock solutions, by dilution with the mobile phase used in the chromatography. Depending on the solubility range, U.V. (1 μg/mL to 100 μg/mL) or MS (1 μg/mL to 1 ng/mL) detector were used in the quantification.
The analysis of all LC-MS data was performed with MassLynx 3.4 software and Analyst 1.4.2. Statistical and graphic analysis of data was performed using Microsoft Excel. The concentration (μM) and solubility (μg/ml) for each compound was calculated using the peak areas from the sample and those from the calibration curve.

[2] = test system: P. falciparum infected erythrocytes; test: P. falciparum growth inhibition assay ([3H]hypoxanthine incorporation); assay type: cell-based; settings: Plasmodium falciparum, Erythrocyte, 0.5% parasitemia (ring stage), 2% hematocrit, 48 h total incubation, read-out: PflC50
Protocol: P. falciparum Growth Inhibition Assay. The sensitivity of P. falciparum infected erythrocytes to the compound is determined in triplicate using the [^3H]hypoxanthine incorporation method with an inoculum of 0.5% parasitemia (ring stage) and 2% hematocrit. The parasites were grown in RPMI 1640, 25 mM HEPES and supplemented with […]. Plates are incubated at 37° C., 5% CO2, 5% O2, 90% N2. After 24 h of incubation, [3H]hypoxanthine is added and plates are incubated for another 24 h. After that period, plates are harvested on a glass fiber filter using a TOMTEC Cell harvester 96. Filters are dried and melt on scintillator sheets and the bound radioactivity is quantified by use of a Wallac Microbeta Trilux (Model 1450 LS-Perkin Elmer). IC50s are determined using Grafit 5 program (Grafit program; Erithacus Software, Horley, Surrey, United Kingdom).

[3] = test system: P. falciparum; test: P. falciparum in vivo efficacy assay (P. falciparum mouse model); design: species or system Plasmodium falciparum; settings: for AUCED90: area under the concentration-time curve at ED90, P. falciparum mouse model; for ED90: dose that eradicates 90 per cent of parasitemia, NOD-scid IL2R_null mice engrafted with human erythrocytes
Protocol: P. Falciparum In Vivo Efficacy Assay.
Antimalarial in vivo efficacy was determined using the P. falciparum mouse model following the procedure described in: Jimenez-Diaz, M. B., Mulet, T., Viera, S., Gómez, V., Garuti, H., Ibañez, J., Alvarez-Doval, A., Shlutz, D. L., Martinez, A., Improved Murine Model Of Malaria Using Plasmodium falciparum (Competent Strains and Non-Myelodepleted NOD-scid IL2R_null
Mice Engrafted with Human Erythrocytes) Antimicrob. Agents Chemother 2009, 53 (10), 4533-4536

[4] = p698 and Table 2 p699; cited from earlier work
[5] = FaSSIF (fasted state simulated intestinal fluid), fassif, Fasted state simulated intestinal fluid, read-out: FaSSIF solubility
[6] = FeSSIF (fed state simulated intestinal fluid), fessif, Fed state simulated intestinal fluid, read-out: FeSSIF solubility
[7] = PBS (phosphate buffered saline), aqueous buffer, Phosphate buffered saline, read-out: PBS solubility
[8] = SGF (simulated gastric fluid), Simulated gastric fluid, read-out: SGF solubility

For `CC(Sc1nc(-c2c(Cl)cncc2Cl)n[nH]1)C(=O)c1c[nH]c2ccccc12` (stereo not drawn) [drawing 26], the solubility at 4 h [1, 5] was 168 µg/mL (≈ 402 µM).

With `C[C@@H](Sc1nc(-c2c(Cl)cncc2Cl)n[nH]1)C(=O)c1c[nH]c2ccccc12` [drawing 21] the IC50 [2] was 19 to 53 nM.

For `O=C(CSc1nc(-c2ccncc2)n[nH]1)c1c[nH]c2ccccc12` [drawing 18], the IC50 [2] was > 5000 nM.

For `Cc1[nH]c2ccccc2c1C(=O)C(C)Sc1nnc(-c2ccccc2Br)[nH]1` (stereo not drawn) [drawing 19], the IC50 [2] was 44 to 60 nM.

`CC(Sc1nc(-c2c(Cl)cncc2Cl)n[nH]1)C(=O)c1c[nH]c2ccccc12` (stereo not drawn) [drawing 20] gave an IC50 [2] of 52 nM.

With `Cc1[nH]c2ccccc2c1C(=O)C(C)Sc1nnc(-c2ccccc2Br)[nH]1` (stereo not drawn) [drawing 25] the solubility at 4 h [1, 5] was 37 µg/mL (≈ 83.8 µM), the solubility at 4 h [1, 6] was 181 µg/mL (≈ 410 µM) and the solubility at 4 h [1, 7] was < 0.1 µg/mL. For the same molecule, the solubility at 4 h [1, 8] was < 0.1 µg/mL.

With `C[C@@H](Sc1nc(-c2c(Cl)cncc2Cl)n[nH]1)C(=O)c1c[nH]c2ccccc12` [drawing 24] the AUCED90 [3] was 0.17 μg.h.ml-1day-1 and the ED90 [3] was 2.2 mg/kg.

For `Cc1[nH]c2ccccc2c1C(=O)C(C)Sc1nnc(-c2ccccc2Br)[nH]1` (stereo not drawn) [drawing 22], the AUCED90 [3] was < 0.05 μg.h.ml-1day-1 and the ED90 [3] was 7.31 mg/kg.

For `O=C(CSc1nc(-c2ccncc2)n[nH]1)c1c[nH]c2ccccc12` [Compound 32], the “activity in the assays of Shah et al.” value [4] is listed as “inactive”.

In the case of `C[C@@H](Sc1nc(-c2c(Cl)cncc2Cl)n[nH]1)C(=O)c1c[nH]c2ccccc12` [drawing 27], the solubility at 4 h [1, 5] is reported as 216 µg/mL (≈ 516 µM), the solubility at 4 h [1, 6] is reported as 578 to 675 µg/mL (≈ 1380 to 1610 µM) and the solubility at 4 h [1, 7] is reported as 169 to 289 µg/mL (≈ 404 to 691 µM). It also gave a solubility at 4 h [1, 8] of 15 to 76 µg/mL (≈ 35.9 to 182 µM).
